According to US20260130894A1, “COMPOSITION COMPRISING ISOQUINOLINE DERIVATIVE AS ACTIVE INGREDIENT FOR PREVENTION OR TREATMENT OF PARKINSON'S DISEASE” (ALTMEDICAL CO., LTD., priority 2022, published 2026):

What was measured:
HeLa-Parkin cell line = assay: Mitophagy activity in HeLa-Parkin cells (FACS); assay type: cell-based, human; settings: FACS (FIG. 2B)
Experimental: It was confirmed whether CD1-012 synthesized in Example 1 increases mitophagy activity in various cell lines. To this end, CD1-012 and Comparative Example 1 (CCCP) were treated in the SH-SY5Y cell line, a human neuroblastoma cell line expressing mt-Keima fluorescent protein, and in the HeLa-Parkin cell line, a HeLa cervical cancer cell line expressing Parkin (E3 ligase). Following this treatment, the mitophagy activity of each sample was analyzed using flow cytometry (FACS), and the results are shown in FIGS. 2A to 2B.

PINK1-deficient MEFs = assay: Mitochondrial function in PINK1-deficient MEFs (TMRM, MitoSOX-Red, ATP production); assay type: cell-based, mouse; settings: 40 μM for 24 hours
Experimental: Subsequently, PINK1-deficient MEFs were treated with CD1-012 at a concentration of 40 μM for 24 hours, and 4 days later, mitochondrial function as analyzed. The mitochondrial membrane potential was analyzed by the tetramethyl rhodamine methyl ester (TMRM) assay, and mitochondrial ROS was analyzed using the MitoSOX-Red assay. […] Conversely, the level of mitochondrial ROS, which was elevated compared to the wild-type cells, was reduced by CD1-012 treatment (FIG. 8D).

[1] = test system: PINK1-deficient Drosophila (B9); assay: Mitochondrial function in Drosophila model of Parkinson's disease; assay type: in vivo
Experimental: In this example, to further verify the effect of the compound of the present invention (CD1-012) on improving mitochondrial dysfunction, a Drosophila model of Parkinson's disease was used. To this end, after administering CD1-012 to PINK1 gene-deficient Drosophila, mitochondrial function was analyzed. […] As a result, the number of damaged mitochondria (with abnormally swollen morphology) observed in the PINK1-deficient Drosophila was reduced in the CD1-012-treated group as compared to an untreated control (FIG. 9A). […] In addition, after 2 weeks of CD1-012 administration, it could be observed that the ATP production capacity of the brain tissue of the PINK11-deficient Drosophila was restored (FIG. 9C).

[2] = test system: mitochondria from the substantia nigra of the mice; assay: Mitochondrial function in substantia nigra of MPTP mouse model (TMRM, ATP production); assay type: in vivo
Experimental: Subsequently, it was confirmed that the compound CD1-012 of the present invention has an effect of improving mitochondrial dysfunction using an animal model of Parkinson's disease. To this end, after separating mitochondria from the substantia nigra of the mice undergoing the behavioral experiment in Example 4, the membrane potential of mitochondria was analyzed through TMRM (100 nM, 37° C., 30 min) fluorescent staining, and the mitochondrial function was analyzed by measuring ATP production (analyzed for 5 mice per group).

[3] = test system: dopaminergic neurons in the substantia nigra; assay: Number of dopaminergic neurons in substantia nigra of MPTP mouse model (TH immunochemical staining); assay type: in vivo; settings: MPTP mice administered CD1-012, TH staining (FIGS. 13A and 13B)
Experimental: Subsequently, it was confirmed whether CD1-012 administration can inhibit dopaminergic neuron death in the substantia nigra of the animal model of Parkinson's disease. To this end, the number of dopaminergic neurons was measured by performing TH immunochemical staining on the substantia nigra of the mice undergoing the behavioral experiment in Example 4.

`Oc1cc2c(cc1O)-c1cc3ccc(O)c(O)c3c[n+]1CC2` [CD1-012, 2,3,9,10-tetrahydroxy-5,6-dihydroisoquinolino[3,2-a]isoquinolin-7-ium bromide] was tested, and the “mitophagy activity compared to the control group (Con)” value (HeLa-Parkin cell line) was “significantly increased mitophagy activity”, the “mitochondrial ATP production (reduced in PINK1-deficient cells)” value (PINK1-deficient MEFs; analyzed 4 days later (FIG. 8E)) was “restored” and the “level of mitochondrial ROS (elevated in PINK1-deficient cells)” value (PINK1-deficient MEFs; analyzed 4 days later, MitoSOX-Red (FIG. 8D)) was “reduced”. For the same molecule, the “mitochondrial membrane potential (decreased in PINK1-deficient cells)” value (PINK1-deficient MEFs; analyzed 4 days later, TMRM (FIG. 8C)) was “restored”, the “mitochondrial ROS in brain tissue (DCF-DA staining)” value ([1]; 1 mM for 2 weeks (FIG. 9B)) was “significantly inhibited” and the “number of damaged mitochondria (abnormally swollen morphology) in dopaminergic neurons compared to untreated control” value ([1]; 1 mM for 2 weeks, brain tissue (FIG. 9A)) was “reduced”. For the same molecule, the “ATP production capacity of brain tissue” value ([1]; 2 weeks of administration (FIG. 9C)) was “restored”, the “ATP synthesis capacity of mitochondria in substantia nigra” value ([2]; MPTP mice coadministered CD1-012 (FIG. 12B)) was “restoration” and the “membrane potential of mitochondria in substantia nigra” value ([2]; MPTP mice coadministered CD1-012, TMRM (FIG. 12A)) was “restoration”. For the same molecule, the “number of dopaminergic neurons in substantia nigra” value [3] was “restored to a level similar to the control”.
